Source: patent US20230129935A1, “SYSTEM, PRODUCT AND METHOD FOR MAINTAINING THE VAGINAL MICROBIOME” (VAGINAL BIOME SCIENCE, INC., priority 2021, published 2023)

Columns and labels:
[1] = test system: herpes simplex virus (HSV-2); details: after a single exposure; cited from earlier work
HIV = assay: Killing of HIV and other pathogens by lubricant acidified with lactic acid; details: vaginal lubricant including substantially racemic lactic acid, matched to vaginal acidity

polyethylene glycol [polyethylene glycol (PEG-8)]
susceptibility to herpes simplex virus (HSV-2) [1]: markedly increased susceptibility

CC(O)C(=O)O (racemic) [lactic acid]
killing of HIV and many other pathogens (HIV): kills HIV and many other pathogens
